Results from patent publication US20190201430A1, “TREATING OCULAR NEOVASCULARIZATION” (Massachusetts Eye and Ear Infirmary, priority 2014, published 2019).
Where a name gives a salt, the structure may show the parent alone.

What was measured:
[1] = system: caveolin-1; test: Western blotting of H2O2 induced caveolin-1 phosphorylation in HUVEC; format: cell-based, human; details: for effect of inhibitor pretreatment on the inhibitory effect of AICAR on H2O2 induced caveolin-1 phosphorylation: DPY 8 μM or IODO 0.4 μM 1 h, AICAR 2 mM 2 h, H2O2 2 mM 30 min, FIG. 2
Protocol: (§1) HUVECs (Lonza, Walkersville, Md.) were cultured in Endothelial Growth Medium (EGM, Lonza, Walkersville, Md.). For all experiments, cells were grown at 37° C. in a humidified atmosphere of 5% CO2 and 95% air. Experiments were performed on cells below passage 3 to 6 grown to 80-90% confluence.
(§2) Protein extraction and western blotting were carried out as described previously (Morizane et al. JBC). Densitometric analysis of bands was performed using ImageJ software. Lane-loading differences were normalized by β-actin.
(§3) Cells were transfected with siRNAs using Nucleofection kit (Amaxa Biosysteins, Gaithersburg, Md.), following the manufacturer's protocol. The medium was changed at 6 h after transfection. The down-regulation of each protein was evaluated at 3 days after nucleofection.

[2] = system: c-Abl; test: Western blotting of H2O2 induced c-Abl phosphorylation in HUVEC; format: cell-based, human; details: DPY 8 μM or IODO 0.4 μM 1 h, AICAR 2 mM 2 h, H2O2 2 mM 30 min; FIG. 2
Protocol: as §1, §2, §3

[3] = system: AMPK; test: Western blotting of AMPK phosphorylation in HUVEC (Example 1); format: cell-based, human; details: DPY or IODO 1 h, then AICAR 2 mM 2 h, FIG. 2B,F
Protocol: as §1, §2

[4] = system: AMPK; test: Western blotting of AMPK phosphorylation in HUVECs (Example 2); format: cell-based, human
Protocol: (§4) Human umbilical vein endothelial cells (HUVECs) were cultured in endothelial growth medium (EGM, Lonza, Walkersville, Md.). Normal human dermal fibroblasts (NHDFs) were cultured in fibroblast basal medium (ATCC, Rockville, Md.). Cells were grown at 37° C. in a humidified atmosphere of 95% air, 5% CO2. Experiments were performed on cells below passage 3 to 6 grown to 80%-90% confluence.
(§5) Protein extraction and Western blotting were carried out as described previously (Morizane et al. JBC (26)). We conducted a densitometric analysis of bands using ImageJ software. Lane-loading differences were normalized by β-actin.

[5] = system: prdx1/c-Abl complex; test: Co-immunoprecipitation of prdx1 and c-Abl under H2O2; format: cell-based, human; details: IODO before AICAR and H2O2; FIG. 6D
Protocol: Immunoprecipitation was performed with the Universal Magnetic Co-IP Kit (Active Motif North America, Carlsbad, Calif.), according to the manufacturer's instruction.
as §3

[6] = system: Akt; test: Western blotting of Akt phosphorylation in HUVECs (VEGF); format: cell-based, human
Protocol: as §4, §5
(§6) Cells were transfected with siRNAs using a Nucleofection kit (Amaxa Biosystems, Gaithersburg, Md.), following the manufacturer's protocol. The medium was changed 6 h after transfection. The down-regulation of each protein was evaluated 3 days after nucleofection.

[7] = system: PTEN; test: Western blotting of PTEN phosphorylation in HUVECs; format: cell-based, human; details: IODO 0.1 μM 60 min, then AICAR 2 mM; FIG. 9A,D
Protocol: as §4, §5

[8] = system: caveolin-1; test: Western blotting of VEGF induced caveolin-1 phosphorylation in HUVECs; format: cell-based, human
Protocol: as §4, §5, §6

[9] = system: c-Abl; test: Western blotting of VEGF induced c-Abl phosphorylation in HUVECs; format: cell-based, human; details: IODO 0.4 μM 1 h, AICAR 2 mM 2 h, VEGF 12.5 ng/mL 10 min; FIG. 12D,E
Protocol: as §4, §5, §6

[10] = system: prdx1/c-Abl complex; test: Co-immunoprecipitation of prdx1 and c-Abl under VEGF; format: cell-based, human; details: AK inhibitor IODO; FIG. 15D,E
Protocol: Immunoprecipitation was performed with the Universal Magnetic Co-IP Kit (Active Motif North America, Carlsbad, Calif.) according to the manufacturer's instruction.
as §6

[11] = system: endothelial cells; details: in the absence of VEGF; cited from earlier work
[12] = IODO 0.4 μM 1 h, AICAR 2 mM 2 h, VEGF 12.5 ng/mL 10 min, FIG. 12D,E

With `OCCN(CCO)c1nc(N2CCCCC2)c2nc(N(CCO)CCO)nc(N3CCCCC3)c2n1` [DPY, dipyridamole] the “effect of inhibitor pretreatment on the inhibitory effect of AICAR on H2O2 induced caveolin-1 phosphorylation” value [1] was “significantly restored”, the “effect of inhibitor pretreatment on the inhibitory effect of AICAR on H2O2 induced c-Abl phosphorylation” value [2] was “significantly restored” and the “AICAR induced AMPK phosphorylation after inhibitor pretreatment” value [3] was “inhibited AICAR induced AMPK phosphorylation dose-dependently”. For the same molecule, the “AICAR induced AMPK phosphorylation after DPY pretreatment” value ([4]; each concentration of DPY 1 h, then AICAR 2 mM 2 h, FIG. 12B) was “inhibited AMPK phosphorylation”.
With `Nc1ncnc2c1c(I)cn2[C@@H]1O[C@H](CO)[C@@H](O)[C@H]1O` [IODO, 5-Iodotubericidin] the “effect of inhibitor pretreatment on the inhibitory effect of AICAR on H2O2 induced caveolin-1 phosphorylation” value [1] was “significantly restored”, the “effect of inhibitor pretreatment on the inhibitory effect of AICAR on H2O2 induced c-Abl phosphorylation” value [2] was “significantly restored” and the “AICAR induced AMPK phosphorylation after inhibitor pretreatment” value [3] was “inhibited AICAR induced AMPK phosphorylation dose-dependently”. The “prdx1/c-Abl dissociation with IODO prior to H2O2 and AICAR” value [5] was “restored the dissociation”, the “effect of IODO pretreatment on AICAR induced Akt dephosphorylation” value ([6]; IODO 0.1 μM 60 min, then AICAR 2 mM, FIG. 9A,C) was “suppressed and delayed” and the “effect of IODO on the inhibitory effect of AICAR on VEGF induced Akt phosphorylation” value [6, 12] was “significantly abolished”. For the same molecule, the “effect of IODO pretreatment on AICAR induced AMPK phosphorylation” value ([4]; IODO 0.1 μM 60 min, then AICAR 2 mM, FIG. 9A,B) was “suppressed and delayed”, the “effect of IODO pretreatment on AICAR induced PTEN phosphorylation” value [7] was “suppressed and delayed” and the “effect of IODO on the inhibitory effect of AICAR on VEGF induced caveolin-1 phosphorylation” value [8, 12] was “significantly abolished”. For the same molecule, the “effect of IODO on the inhibitory effect of AICAR on VEGF induced c-Abl phosphorylation” value [9] was “significantly abolished” and the “effect of IODO on AICAR inhibition of VEGF induced prdx1/c-Abl dissociation” value [10] was “abrogated”.
In the case of `Cc1ccc(NC(=O)c2ccc(CN3CCN(C)CC3)cc2)cc1Nc1nccc(-c2cccnc2)n1` [imatinib mesylate, Imatinib mesylate], the “H2O2 induced phosphorylation of caveolin-1” value ([1]; HUVEC, imatinib mesylate 10 or 20 uM for 24, 48 or 72 h, then H2O2 2 mM 30 min, FIG. 5A,B) is reported as “inhibited H2O2 induced phosphorylation of both caveolin-1 and c-Abl dose- and time-dependently” and the “VEGF-induced phosphorylation of caveolin-1” value ([8]; imatinib mesylate 10 or 20 μM for 24, 48 or 72 h, then VEGF 12.5 ng/mL 10 min, FIG. 14A,C) is reported as “inhibited the VEGF-induced phosphorylation of caveolin-1 and c-Abl in a time and dose dependent manner”.
In the case of `N#Cc1c(O)c2c(-c3ccc(-c4ccccc4O)cc3)csc2[nH]c1=O` [A769662, 4-hydroxy-3-[4-(2-hydroxyphenyl)phenyl]-6-oxo-7H-thieno[2,3-b]pyridine-5-carbonitrile], the endothelial proliferation [11] is listed as “suppressed endothelial proliferation”.
